This is an account of results in patent US20010046491A1, “Tumor radiosensitization with mutant thymidine kinase in combination with a prodrug” (priority 2000, published 2001).

SMILES strings stand for the structures.

The experiment has as its system rat RT2 glioma cells. Put plainly: MTT growth/toxicity assay of adenovirus-infected RT2 cells exposed to GCV or ACV. The settings on record: 1-100 microM; for effect of prodrug on cell growth/toxicity (MTT): control AdCMV (empty vector)-infected RT2 cells, 5 days. The class given is cell-based. An excerpt: FIG. 2. Mutant HSV-TK75 sensitizes rat RT2 glioma cells to GCV and ACV more efficiently than wild type HSV-TK. Rat RT2 cells were infected with AdCMV (empty vector), AdCMV-TK, or AdCMV-TK75. At 2 days postinfection, cells were trypsinized, serially diluted, seeded in microtiter plates, and exposed to various doses of ACV or GCV. After 5 days, the plates were processed for growth/toxicity by MTT assay. (Contessa et al., 1999). Values were normalized to values from cells that were infected but not treated with GCV or ACV.
RT2 cells (a rat glioma cell line derived from Fischer 344 rats (Wilfong et al. 1973) that form tumors with features typical of human glioblastoma (Mahaley et al, 1977) were cultured in Dulbecco's modified Eagle's medium with 10% fetal bovine serum supplemented with penicillin/strepto-mycin. (Brust et al., 2000). Infected cells were exposed to Zovirax/ACV (manufactured by Glaxo Wellcome, Chapel Hill, N.C.) or GCV (kindly provided by Syntex, Palo Alto, Calif.) added to the medium. Cells were irradiated in medium with a ^60Co γ irradiator (Picker Zonegard V4 M60; Picker Interational, Cleveland, Ohio) set at 1 Gy/minute. Cell viability was determined by the 3-(4,5-dimethylthiazol-2-yl)-2,5-[…] bromide (MTT) assay. (Contessa et al, 1999). Terminal deoxynucleotidyltransferase-mediated deoxyuridine triphosphate nick end labeling assays were carried out with an ApopTag Direct kit from Oncor (Gaithersburg, Md.), according to the manufacturer's instructions, to provide a measurement of apoptosis.
It was subsequently determined whether infection of RT2 cells with the adenovirus expressing mutant HSV-TK 75 was able to predispose RT2 cells to killing by GCV and ACV more efficiently than cells infected with virus expressing wild type HSV-TK. At 2 days postinfection, infected cells were exposed to increasing concentrations (1-100 microM) of either GCV or ACV. As a control, we used an adenovirus(AdCMV) carrying no transgene.

In the case of `Nc1nc2c(ncn2COCCO)c(=O)[nH]1` [ACV, acyclovir], the “effect of prodrug on cell growth/toxicity (MTT)” value is “little to no effect”.

Turning to `Nc1nc(O)c2ncn(COC(CO)CO)c2n1` [GCV, ganciclovir], the “effect of prodrug on cell growth/toxicity (MTT)” value was “little to no effect”. The “cell killing, comparison of prodrugs” value (AdCMV-TK-infected RT2 cells) is reported as “more effective than with ACV”.
